# Assay results as given in patent US20140206678A1, “INHIBITORS OF MTOR KINASE AS ANTI -VIRAL AGENT” (KADMON CORPORATION, LLC, priority 2011, published 2014).
# Experiments:
# [1] = tested on: mTORC1 targets (4EBP1, rpS6); assay: Phosphorylation of mTORC1 targets in HCMV-infected fibroblasts (Western blot); format: cell-based, human; details: rapamycin 20 nM, Torin1 250 nM
# cells = details: concentrations of up to 500 nM; previous reports; cited from earlier work
# eIF4F complex = assay: Cap-binding (eIF4F) complex in MCMV-infected MEFs, m7G-Sepharose; format: cell-based, mouse; details: Torin1 250 nM, 48 hpi
# Protocol: FIG. 7. […] At 6 days post infection the amount of MCMV in cell-free supernatants was determined by the TCID50 method. The error bars represent the standard errors of the means from three independent experiments, each performed in duplicate. […] At 48 hpi equal amounts of protein from cell lysates were incubated with m^7G-Sepharose. The presence of eIF4F complex components bound by the cap analog was determined by Western blotting. The results are representative of two independent experiments.
# HCMV DNA = assay: HCMV viral DNA in infected fibroblasts by qPCR; format: cell-based, human cytomegalovirus
# Protocol: (§1) FIG. 2. […] Serum-starved confluent fibroblasts were infected with HCMV at a multiplicity of 3 PFU/cell. […] Control cultures received the vehicle in which Torin1 was dissolved (NT). At 2 hpi cells were harvested, and cell-associated viral DNA was quantified by real-time PCR analysis. Error bars represent the standard errors of the means from two independent experiments performed in duplicate. […] The level of IE1 was determined at 6 hpi by a Western blot assay using an IE1-specific monoclonal antibody. The image is representative of two independent experiments. […] The expression of a GFP marker gene present in the viral genome was monitored at 24 h after infection in the presence or absence of drug.
# FIG. 3. […] Cells were harvested at the indicated times, and the accumulation of the indicated proteins was analyzed by Western blotting. […] At the indicated times DNA was isolated, and viral DNA was quantified by qPCR. Equivalent amounts of DNA were analyzed for each sample, and the results are normalized to the level of actin DNA per sample. […] At the indicated times the amount of UL99 RNA was determined by qPCR, and the results are normalized to the amount of actin RNA in each sample. […]
# Briefly, primary human fibroblasts were infected with BADinGFP at a multiplicity of 0.05 PFU/cell. […] For each sample, DNA was quantified by using a NanoDrop spectrophotometer (Thermo Scientific). […]
# γHV68 = γHV68 replication in MEFs, TCID50; format: cell-based, murine gammaherpesvirus 68; details: 6 days post infection, rapamycin 20 nM, Torin1 250 nM
# HCMV [2] = assay: HCMV multistep growth in serum-starved human fibroblasts, cell-free virus by TCID50; format: cell-based, human cytomegalovirus
# HSV-1 = HSV-1 replication in MEFs, TCID50; format: cell-based, herpes simplex virus type 1; details: 72 hpi
# eIF4F complex and 4EBP1 = assay: m7GTP-Sepharose cap-analog binding (eIF4F complex) in HCMV-infected fibroblasts; format: cell-based, human; details: rapamycin 20 nM, Torin1 250 nM
# Protocol: FIG. 4. Rapamycin-resistant mTOR activity is required for 4EBP1 phosphorylation and eIF4F complex integrity during HCMV infection. Serum-starved confluent human fibroblasts were infected with HCMV at a multiplicity of 3 PFU/cell. […] (A) At 48 hpi the phosphorylation status of mTORC1 targets was assessed by Western blot assay by using antibodies to phosphorylated targets (4EBP1-PT^37/46 and rpS6-PS^235/6) and total proteins. Tubulin was assayed as a loading control. (B) Same as above (A) except that cells were harvested at the indicated times. (C and D) After mock infection (M) or infection with HCMV (WT) at a multiplicity of 3 PFU/cell, cultures were harvested at the indicated times. Equivalent amounts of protein from each sample were incubated with m^7GTP-Sepharose, and the isolated protein complexes were analyzed by Western blotting using the indicated antibodies to the eIF4F complex and 4EBP1. In all cases the results are representative of at least two independent experiments. lys, lysate.
# The phosphorylation status of 4EBP1 regulates cap-dependent protein translation. Hypophosphorylated 4EBP1 binds to eIF4E and inhibits the formation of the eIF4F complex, while the phosphorylation of 4EBP1 inhibits its interaction with eIF4E. […]
# HCMV [3] = assay: GFP marker expression from the HCMV genome (percentage of infected cells); format: cell-based, human cytomegalovirus; details: 24 hpi; 250 nM
# Protocol: as §1
# [4] = tested on: mTORC1 targets (4EBP1, rpS6); assay: Phosphorylation of mTORC1 targets in MCMV-infected MEFs (Western blot); format: cell-based, mouse; details: Torin1 250 nM; for 4EBP1 phosphorylation: MCMV
# [5] = 48 hpi, rapamycin 20 nM, LY294002 20 μM
structure (smiles),measurement,setting,value
CCC(=O)N1CCN(c2ccc(-n3c(=O)ccc4cnc5ccc(-c6cnc7ccccc7c6)cc5c43)cc2C(F)(F)F)CC1 [Torin1],phosphorylation of 4EBP1 during HCMV infection,[1],substantially blocked
same,induction of rpS6 phosphorylation during HCMV infection,[1]; 48 hpi,markedly inhibited
same,cell killing,cells,does not kill cells
same,formation of the eIF4F complex,eIF4F complex; 4EBP1-null cells,no such effect was observed
same,formation of the eIF4F complex,eIF4F complex; control cells,inhibited the formation
same,level of cell-associated viral DNA,"HCMV DNA; 2 hpi, 250 nM, pretreated 24 h or after adsorption, 3 PFU/cell",not influenced
same,reduction of viral DNA accumulation,"HCMV DNA; 96 hpi, Torin1 250 nM, 0.05 PFU/cell",150 fold
same,γHV68 replication,γHV68,inhibited
same,IC50,"HCMV [2]; Human betaherpesvirus 5, Fibroblast, 192 h, read-out: IC50 for blocking production of HCMV progeny",~60 nM
same,HCMV replication after removal of drug,"HCMV [2]; cells had received 100 nM Torin1, 16 days post infection",completely recovered
same,HCMV replication after removal of drug,"HCMV [2]; cells had received 250 nM drug, 16 days post infection",substantially recovered
same,HCMV replication after removal of drug,"HCMV [2]; cultures initially received 1 mM drug, 16 days post infection",partially recovered
same,reduction of HCMV yield,"HCMV [2]; day 10, rapamycin 20 nM, Torin1 250 nM, 0.05 PFU/cell",about 160 fold
same,increase in virus yield after reversal of an 8-day Torin1 treatment,"HCMV [2]; drug release, 16 days post infection",> 100 fold
same,HSV-1 replication,"HSV-1; MEFs, rapamycin 20 nM, Torin1 250 nM, 0.05 PFU/cell",inhibited
same,production of HSV-1,HSV-1; cells lacking 4EBP1,failed to inhibit
same,association of 4EBP1 with m7GTP-Sepharose cap analog,eIF4F complex and 4EBP1,substantially increased association
same,association of eIF4G and eIF4A with the cap analog,eIF4F complex and 4EBP1,reduced association
same,percentage of cells expressing GFP marker protein,HCMV [3],did not alter
same,phosphorylation of 4EBP1 in MCMV-infected MEFs,[4]; [5],inhibited
same,phosphorylation of rpS6 in MCMV-infected MEFs,[4]; [5],completely inhibited
same,4EBP1 phosphorylation,[4]; Akt1/Akt2-null MEFs,inhibited
same,4EBP1 phosphorylation,[4]; Rictor-null MEFs,effectively inhibited
